The target of the assay is T1, bradykinin receptor of the B2 class (rat uterus) (Rattus norvegicus, UniProt P25023).
T1 construct: concentration effect curves to bradykinin (BK) on rat uterus in vitro; from tissue; host or cells: rat uterus
T1 sequence (P25023 1-396): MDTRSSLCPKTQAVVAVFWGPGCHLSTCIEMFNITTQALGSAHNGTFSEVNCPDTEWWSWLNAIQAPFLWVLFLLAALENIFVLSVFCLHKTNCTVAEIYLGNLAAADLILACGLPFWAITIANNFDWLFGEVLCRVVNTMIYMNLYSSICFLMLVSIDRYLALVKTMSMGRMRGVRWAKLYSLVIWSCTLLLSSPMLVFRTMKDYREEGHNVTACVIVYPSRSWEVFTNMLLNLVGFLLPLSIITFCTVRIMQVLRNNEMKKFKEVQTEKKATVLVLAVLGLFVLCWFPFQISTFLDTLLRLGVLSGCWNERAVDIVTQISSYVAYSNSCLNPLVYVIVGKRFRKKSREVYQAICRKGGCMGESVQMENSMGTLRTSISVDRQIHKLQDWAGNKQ
As to the kind of experiment: Rat uterus (RU) in vitro, antagonism of bradykinin. Conditions: for % RECOVERY: rat uterus. As to the method: Thus in vitro studies were performed on standard assay systems, namely, guinea-pig ileum (GPI), rat uterus (RU) and rabbit jugular vein (RJV). […] The PA2 can be defined as the negative logarithm of the molar concentration of the antagonist in the presence of which the potency of the agonist is reduced two-fold, i.e. twice the amount of agonist is required to produce a given response in the presence of, than in the absence of, the antagonist. A high potency of antagonism is indicated by a high PA2 value, i.e., a low concentration of antagonist is effective.
The percentage recovery (% Rec) was also determined for compounds with respect to each assay.
With respect to duration of activity, it is noted that after exposure to the highest concentration of antagonist, each tissue was washed extensively and then assessed for recovery from the antagonist effect.
Potency in the rat uterus assay was assessed as described above and PA2 values determined.

[1] abbreviates: Table D, effect of linker length, read-out: pA2 (UTERUS) (converted).

Where two headings read alike, the source gives them in different places. Square brackets hold non-standard residues; d marks the D form. Peptide text beside a SMILES is read from it. * marks the point of attachment. Hyp = O=C(O)[C@@H]1C[C@@H](O)CN1; X19 = CCCCCCNC(=O)C*

`CC(C)C[C@H](NC(=O)[C@@H](Cc1ccccc1)NC(=O)[C@H](CSC1CC(=O)N(CCN2C(=O)CC(SC[C@H](NC(=O)[C@H](Cc3ccccc3)NC(=O)CNC(=O)[C@@H]3C[C@@H](O)CN3C(=O)[C@@H]3CCCN3C(=O)[C@H](CCCNC(=N)N)NC(=O)[C@H](N)CCCNC(=N)N)C(=O)N[C@H](Cc3ccccc3)C(=O)N[C@@H](CC(C)C)C(=O)N[C@@H](CCCNC(=N)N)C(=O)O)C2=O)C1=O)NC(=O)[C@H](Cc1ccccc1)NC(=O)CNC(=O)[C@@H]1C[C@@H](O)CN1C(=O)[C@@H]1CCCN1C(=O)[C@H](CCCNC(=N)N)NC(=O)[C@H](N)CCCNC(=N)N)C(=O)N[C@@H](CCCNC(=N)N)C(=O)O` (stereo partly drawn) [CP-0162] (HELM PEPTIDE1{[dR].R.P.[Hyp].G.F.C.[dF].L.R}|PEPTIDE2{[dR].R.P.[Hyp].G.F.C.[dF].L.R}|CHEM1{[O=C1CC([*:1])C(=O)N1CCN1C(=O)CC([*:2])C1=O]}$PEPTIDE1,CHEM1,7:R3-1:R1|PEPTIDE2,CHEM1,7:R3-1:R2$$$V2.0): the “% REC (40 MIN)” value (Table D) turned out to be 90%. Moreover, the Kb under setting [1] was 5.01 nM.
In the case of `CC(C)C[C@H](NC(=O)[C@@H](Cc1ccccc1)NC(=O)[C@H](CSC1CC(=O)N(CCCCCCCCCCCCN2C(=O)CC(SC[C@H](NC(=O)[C@H](Cc3ccccc3)NC(=O)CNC(=O)[C@@H]3C[C@@H](O)CN3C(=O)[C@@H]3CCCN3C(=O)[C@H](CCCNC(=N)N)NC(=O)[C@H](N)CCCNC(=N)N)C(=O)N[C@H](Cc3ccccc3)C(=O)N[C@@H](CC(C)C)C(=O)N[C@@H](CCCNC(=N)N)C(=O)O)C2=O)C1=O)NC(=O)[C@H](Cc1ccccc1)NC(=O)CNC(=O)[C@@H]1C[C@@H](O)CN1C(=O)[C@@H]1CCCN1C(=O)[C@H](CCCNC(=N)N)NC(=O)[C@H](N)CCCNC(=N)N)C(=O)N[C@@H](CCCNC(=N)N)C(=O)O` (stereo partly drawn) [CP-0166] (HELM PEPTIDE1{[dR].R.P.[Hyp].G.F.C.[dF].L.R}|PEPTIDE2{[dR].R.P.[Hyp].G.F.C.[dF].L.R}|CHEM1{[O=C1CC([*:1])C(=O)N1CCCCCCCCCCCCN1C(=O)CC([*:2])C1=O]}$PEPTIDE1,CHEM1,7:R3-1:R1|PEPTIDE2,CHEM1,7:R3-1:R2$$$V2.0), where the note is “Table D”, the “% REC (40 MIN)” value was 0%. Also, the Kb under setting [1] is 6.31 nM.
For `CC(C)C[C@H](NC(=O)[C@@H](Cc1ccccc1)NC(=O)[C@H](CSC1CC(=O)N(CCCN2C(=O)CC(SC[C@H](NC(=O)[C@H](Cc3ccccc3)NC(=O)CNC(=O)[C@@H]3C[C@@H](O)CN3C(=O)[C@@H]3CCCN3C(=O)[C@H](CCCNC(=N)N)NC(=O)[C@H](N)CCCNC(=N)N)C(=O)N[C@H](Cc3ccccc3)C(=O)N[C@@H](CC(C)C)C(=O)N[C@@H](CCCNC(=N)N)C(=O)O)C2=O)C1=O)NC(=O)[C@H](Cc1ccccc1)NC(=O)CNC(=O)[C@@H]1C[C@@H](O)CN1C(=O)[C@@H]1CCCN1C(=O)[C@H](CCCNC(=N)N)NC(=O)[C@H](N)CCCNC(=N)N)C(=O)N[C@@H](CCCNC(=N)N)C(=O)O` (stereo partly drawn) [CP-0172] (HELM PEPTIDE1{[dR].R.P.[Hyp].G.F.C.[dF].L.R}|PEPTIDE2{[dR].R.P.[Hyp].G.F.C.[dF].L.R}|CHEM1{[O=C1CC([*:1])C(=O)N1CCCN1C(=O)CC([*:2])C1=O]}$PEPTIDE1,CHEM1,7:R3-1:R1|PEPTIDE2,CHEM1,7:R3-1:R2$$$V2.0), the “% REC (40 MIN)” value (Table D) is on record as 90%. For the same compound, the Kb under setting [1] was 2.51 nM.
On to `N=C(N)NCCC[C@@H](N)C(=O)N[C@@H](CCCNC(=N)N)C(=O)N1CCC[C@H]1C(=O)N1C[C@H](O)C[C@H]1C(=O)NCC(=O)N[C@@H](Cc1ccccc1)C(=O)N[C@@H](CO)C(=O)N[C@H](Cc1ccccc1)C(=O)N[C@@H](Cc1ccccc1)C(=O)N[C@@H](CCCNC(=N)N)C(=O)O` [CP-0181, DArg^0 -Arg^1 -Pro^2 -Hyp^3 -Gly^4 -Phe^5 -Ser^6 -DPhe^7 -Phe^8 -Arg^9, reference compound], for which, for the setting “Table F”, the “% RECOVERY” value was 100%. In addition, the Kb (Table F, read-out: RAT UTERUS pA2 (converted)) was 100 nM.
With `CC(C)C[C@H](NC(=O)[C@@H](Cc1ccccc1)NC(=O)[C@H](CSC1CC(=O)N(CCCCN2C(=O)CC(SC[C@H](NC(=O)[C@H](Cc3ccccc3)NC(=O)CNC(=O)[C@@H]3C[C@@H](O)CN3C(=O)[C@@H]3CCCN3C(=O)[C@H](CCCNC(=N)N)NC(=O)[C@H](N)CCCNC(=N)N)C(=O)N[C@H](Cc3ccccc3)C(=O)N[C@@H](CC(C)C)C(=O)N[C@@H](CCCNC(=N)N)C(=O)O)C2=O)C1=O)NC(=O)[C@H](Cc1ccccc1)NC(=O)CNC(=O)[C@@H]1C[C@@H](O)CN1C(=O)[C@@H]1CCCN1C(=O)[C@H](CCCNC(=N)N)NC(=O)[C@H](N)CCCNC(=N)N)C(=O)N[C@@H](CCCNC(=N)N)C(=O)O` (stereo partly drawn) [CP-0209] (HELM PEPTIDE1{[dR].R.P.[Hyp].G.F.C.[dF].L.R}|PEPTIDE2{[dR].R.P.[Hyp].G.F.C.[dF].L.R}|CHEM1{[O=C1CC([*:1])C(=O)N1CCCCN1C(=O)CC([*:2])C1=O]}$PEPTIDE1,CHEM1,7:R3-1:R1|PEPTIDE2,CHEM1,7:R3-1:R2$$$V2.0), where the note is “Table D”, the “% REC (40 MIN)” value stood at 50%. Moreover, the Kb under setting [1] was 6.31 nM.
Turning to `CC(C)C[C@H](NC(=O)[C@@H](Cc1ccccc1)NC(=O)[C@H](CSC1CC(=O)N(CCCCCCCCN2C(=O)CC(SC[C@H](NC(=O)[C@H](Cc3ccccc3)NC(=O)CNC(=O)[C@@H]3C[C@@H](O)CN3C(=O)[C@@H]3CCCN3C(=O)[C@H](CCCNC(=N)N)NC(=O)[C@H](N)CCCNC(=N)N)C(=O)N[C@H](Cc3ccccc3)C(=O)N[C@@H](CC(C)C)C(=O)N[C@@H](CCCNC(=N)N)C(=O)O)C2=O)C1=O)NC(=O)[C@H](Cc1ccccc1)NC(=O)CNC(=O)[C@@H]1C[C@@H](O)CN1C(=O)[C@@H]1CCCN1C(=O)[C@H](CCCNC(=N)N)NC(=O)[C@H](N)CCCNC(=N)N)C(=O)N[C@@H](CCCNC(=N)N)C(=O)O` (stereo partly drawn) [CP-0211] (HELM PEPTIDE1{[dR].R.P.[Hyp].G.F.C.[dF].L.R}|PEPTIDE2{[dR].R.P.[Hyp].G.F.C.[dF].L.R}|CHEM1{[O=C1CC([*:1])C(=O)N1CCCCCCCCN1C(=O)CC([*:2])C1=O]}$PEPTIDE1,CHEM1,7:R3-1:R1|PEPTIDE2,CHEM1,7:R3-1:R2$$$V2.0), the “% REC (40 MIN)” value (Table D) is 25%. In addition, the Kb under setting [1] is 3.98 nM.
Regarding `CC(C)C[C@H](NC(=O)[C@@H](Cc1ccccc1)NC(=O)[C@H](CSC1CC(=O)N(CCCCCCCCCN2C(=O)CC(SC[C@H](NC(=O)[C@H](Cc3ccccc3)NC(=O)CNC(=O)[C@@H]3C[C@@H](O)CN3C(=O)[C@@H]3CCCN3C(=O)[C@H](CCCNC(=N)N)NC(=O)[C@H](N)CCCNC(=N)N)C(=O)N[C@H](Cc3ccccc3)C(=O)N[C@@H](CC(C)C)C(=O)N[C@@H](CCCNC(=N)N)C(=O)O)C2=O)C1=O)NC(=O)[C@H](Cc1ccccc1)NC(=O)CNC(=O)[C@@H]1C[C@@H](O)CN1C(=O)[C@@H]1CCCN1C(=O)[C@H](CCCNC(=N)N)NC(=O)[C@H](N)CCCNC(=N)N)C(=O)N[C@@H](CCCNC(=N)N)C(=O)O` (stereo partly drawn) [CP-0229] (HELM PEPTIDE1{[dR].R.P.[Hyp].G.F.C.[dF].L.R}|PEPTIDE2{[dR].R.P.[Hyp].G.F.C.[dF].L.R}|CHEM1{[O=C1CC([*:1])C(=O)N1CCCCCCCCCN1C(=O)CC([*:2])C1=O]}$PEPTIDE1,CHEM1,7:R3-1:R1|PEPTIDE2,CHEM1,7:R3-1:R2$$$V2.0), the “% REC (40 MIN)” value (Table D) was 0-10%. The Kb under setting [1] was 1 nM.
`CC(C)C[C@H](NC(=O)[C@@H](Cc1ccccc1)NC(=O)[C@H](CSC1CC(=O)N(CCCCCCCCCCN2C(=O)CC(SC[C@H](NC(=O)[C@H](Cc3ccccc3)NC(=O)CNC(=O)[C@@H]3C[C@@H](O)CN3C(=O)[C@@H]3CCCN3C(=O)[C@H](CCCNC(=N)N)NC(=O)[C@H](N)CCCNC(=N)N)C(=O)N[C@H](Cc3ccccc3)C(=O)N[C@@H](CC(C)C)C(=O)N[C@@H](CCCNC(=N)N)C(=O)O)C2=O)C1=O)NC(=O)[C@H](Cc1ccccc1)NC(=O)CNC(=O)[C@@H]1C[C@@H](O)CN1C(=O)[C@@H]1CCCN1C(=O)[C@H](CCCNC(=N)N)NC(=O)[C@H](N)CCCNC(=N)N)C(=O)N[C@@H](CCCNC(=N)N)C(=O)O` (stereo partly drawn) [CP-0230] (HELM PEPTIDE1{[dR].R.P.[Hyp].G.F.C.[dF].L.R}|PEPTIDE2{[dR].R.P.[Hyp].G.F.C.[dF].L.R}|CHEM1{[O=C1CC([*:1])C(=O)N1CCCCCCCCCCN1C(=O)CC([*:2])C1=O]}$PEPTIDE1,CHEM1,7:R3-1:R1|PEPTIDE2,CHEM1,7:R3-1:R2$$$V2.0): the “% REC (40 MIN)” value (Table D) was found to be 0%. Besides, under setting [1], the Kb was 3.98 nM.
For the compound `CCCCCCNC(=O)CSC[C@H](NC(=O)[C@H](Cc1ccccc1)NC(=O)CNC(=O)[C@@H]1C[C@@H](O)CN1C(=O)[C@@H]1CCCN1C(=O)[C@H](CCCNC(=N)N)NC(=O)[C@H](N)CCCNC(=N)N)C(=O)N[C@H](Cc1ccccc1)C(=O)N[C@@H](CC(C)C)C(=O)N[C@@H](CCCNC(=N)N)C(=O)O` [CP-0266] (H-[dR]RP[Hyp]GFC(X19)[dF]LR-OH), the Kb (Table H, monomer modifications, read-out: RAT UTERUS pA2 (converted)) is 6.31 nM. Further, the “% RECOVERY” value (Table H) was 70%.

For the origin of these results see patent US5416191A, “Bradykinin antagonists” (Cortech, Inc., priority 1993, dated 1995).
